Patent publication US20210260010A1, “COMPOSITIONS AND METHODS FOR THE REDUCTION OR TREATMENT OF INFLAMMATION” (AXCELLA HEALTH INC., priority 2018, published 2021)

Assays:
MCP1/CCL2 = MCP1/CCL2 secretion by primary human hepatocytes exposed to free fatty acids and TNF-α (ELISA); type: cell-based; conditions: for MCP1 expression relative to Control- Donor 1, Mean: donor 1 hepatocytes; for MCP1 expression relative to Control- Donor 1, Mean / MCP1 expression relative to Control- Donor 2, Mean: FFA + TNF-α, baseline subtracted; for MCP1 expression relative to Control- Donor 2, Mean: donor 2 hepatocytes
Experimental: Hepatocyte lipotoxicity appears to be a central driver of hepatic cellular injury via oxidative stress and endoplasmic reticulum (ER) stress. The ability of amino acids to influence steatosis (lipid accumulation) and inflammation in hepatocytes was assessed using human primary hepatocytes (Lonza, TRL).
Primary hepatocytes lot nos. from two healthy human donors were seeded on day 0 at density of 6e04 cells in 96 well optical microplates (Thermofisher) in hepatocyte plating media (William's E medium (Gibco) supplemented with 10% heat-inactivated FBS (Atlanta Bio), 2 mM Glutamax (Gibco) and 0.2% Primocin (InVivoGen) and incubated for 6 hours at 37° C., 5% CO2. After 6 hours, cells were washed twice and incubated overnight at 37° C., 5% CO2 with Hepatocytes defined medium (Corning) supplemented with 2 mM Glutamax (Gibco) and 1× Penicillin/Streptomycin. On day 1, cells were washed twice and incubated for 24 h in the hepatocyte culture media in the same conditions described above.
On day 2, cells were washed twice with DPBS 1× (Gibco) and maintained in amino acid-free WEM (US Biologicals) containing a defined custom amino acid concentration based on the mean physiological concentrations in blood. The values are published in the Human Metabolome Database (Wishart D S, Tzur D, Knox C, et al., HMDB: the Human Metabolome Database. Nucleic Acids Res. January 2007; 35(Database issue):D521-6. 17202168; which is hereby incorporated by reference in its entirety). This custom media is supplemented with 11 mM Glucose, 0.272 mM Sodium Pyruvate, and a dose curve of defined amino acid compositions (i.e., vehicle, LIVRQ+N-acetylcysteine, LIVRQ, RQ+N-acetylcysteine, N-acetylcysteine alone, LIV, or individually with L-Leucine, L-Isoleucine, L-Valine, L-Arginine, L-Glutamine, and L-Cysteine) at various ranges of concentrations. Cells were maintained in this defined media for 24 hours at 37° C., 5% CO2.
After pre-treatment, cells were exposed to free fatty acids (FFA) at 250 uM with a ratio of 2:1 (Oleate:Palmitate) supplemented with TNF-α (Thermofisher) at 1 ng/ml or vehicle. Cells were incubated with the FFAs mixture and the different amino acids combinations for 24 hours at 37° C., 5% CO2. After 24 hours incubation, media was removed for cytokine analysis and replaced by fresh media containing the same stimulus conditions and amino acid concentrations. Cells were incubated for an additional 48 hours for a total of 72 hours of FFA and TNFα stimulation.
Human CCL2 (MCP-1) was measured by ELISA (Human […] DuoSet ELISA, R&D Systems) at ⅕ or 1/10 dilution in 1× Reagent Diluent (Reagent Ancillary Kit 2, R&D Systems). Data were normalized to the specific per well cell density determined by nuclei count stained by Hoechst 3342 (Life technologies) in the fluorescence microscopy described below.

CCL18 = test: IL-4 induced CCL18 secretion in primary human monocyte-derived macrophages (ELISA); type: cell-based; conditions: for Donor 1 CCL18 Measurements Mean / Donor 2 CCL18 Measurements Mean: relative to vehicle control; for CCL18 Measurements: Mean (fold change relative to vehicle control): Donor 3, IL-4 induced
Experimental: Lymphocytes were purified from unpurified buffy coats (Research Blood Components) using Lymphocyte Separation Medium (Corning). After centrifugation, the PBMC layer was extracted and rinsed several times using Dulbecco's phosphate-buffered saline (DPBS; Gibco). After straining PBMCs through a 70 uM cell strainer, cells were resuspended and counted using a Cellometer K2 automated cell counter.
CD14+ cells were selected using EasySep™ Human CD14 Positive Selection Kit II ([…] Technologies) according to manufacturer-supplied protocols. Following isolation CD14+ cells were seeded into 10 cm tissue culture plates and differentiated into macrophages using M-CSF (Peprotech).
On day 0, primary human PBMC derived macrophages were seeded in Dulbecco's Modified Eagle Medium (DMEM) (Gibco) supplemented with penicillin-streptomycin (Hyclone) and 10% heat inactivated fetal bovine serum (HI-FBS) (Atlanta Bio) into 96-well microplates (ThermoFisher) and incubated overnight at 37° C., 5% CO2. On day 1, cells were washed once with DPBS and then treated with: • a. Amino acid free DMEM (US Biologicals) containing a defined custom amino acid concentration based on the mean physiological concentrations in blood based on values published in the Human Metabolome Database (HMDB), with 6 mM glucose, 1 mM sodium pyruvate, 10 mM HEPES, penicillin-streptomycin; or • b. The same medium described above with one amino acid or amino acid combination at various concentrations
On day 2, cells were treated with the same mediums described above supplemented with recombinant human interleukin-4 (IL-4; Peprotech). Control wells were treated with tofacitinib (Tocris) and IL-4, PBS with IL-4, or phosphate buffered saline (PBS) alone.
On day 3, the supernatant was collected and immediately frozen in −80° C. freezer. Cells were washed once with DPBS and viability was assessed using the WST-8 Cell Proliferation Cytotoxicity Assay (Dojindo) according to manufacturer-supplied protocol. Following the assay, cells were washed twice with PBS and fixed with 4% paraformaldehyde. Protein levels in supernatant samples were analyzed by ELISA for CCL18 using commercially available kits (R&D Systems) according to manufacturer-supplied protocols.

[1] = Conc. 234 μM (baseline comparator)

`CC(C)[C@H](N)C(=O)O` [Valine, L-Valine] was tested, and the “MCP1 expression relative to Control- Donor 1, Mean” value (MCP1/CCL2; [1]) was −2.4E−15, the “MCP1 expression relative to Control- Donor 2, Mean” value (MCP1/CCL2; [1]) was −1.4E−14 and the “MCP1 expression relative to Control- Donor 1, Mean” value (MCP1/CCL2; Conc. 4684 μM) was 23.6867. For the same compound, the “MCP1 expression relative to Control- Donor 2, Mean” value (MCP1/CCL2; Conc. 4684 μM) was 10.79, the “MCP1 expression relative to Control- Donor 1, Mean” value (MCP1/CCL2; Conc. 11710 μM) was 77.73 and the “MCP1 expression relative to Control- Donor 2, Mean” value (MCP1/CCL2; Conc. 11710 μM) was 38.25. For the same compound, the “MCP1 expression relative to Control- Donor 1, Mean” value (MCP1/CCL2; Conc. 23420 μM) was 14.17, the “MCP1 expression relative to Control- Donor 2, Mean” value (MCP1/CCL2; Conc. 23420 μM) was −30.7921 and the “MCP1/CCL2 secretion (baseline subtracted)” value (MCP1/CCL2; primary human hepatocytes from two healthy donors, FFA 250 uM + TNF-α 1 ng/ml) was “did not have an effect”. For the same compound, the “Donor 1 CCL18 Measurements Mean” value (CCL18; Conc. 234 μM) was 1.109 fold change, the “Donor 1 CCL18 Measurements Mean” value (CCL18; Conc. 4684 μM) was 1.264 fold change and the “Donor 1 CCL18 Measurements Mean” value (CCL18; Conc. 11710 μM) was 1.442 fold change. For the same compound, the “Donor 1 CCL18 Measurements Mean” value (CCL18; Conc. 23420 μM) was 0.9491 fold change, the “Donor 2 CCL18 Measurements Mean” value (CCL18; Donor 2, Conc. 234 μM) was 1.255 fold change and the “Donor 2 CCL18 Measurements Mean” value (CCL18; Donor 2, Conc. 4684 μM) was 1.545 fold change. For the same compound, the “Donor 2 CCL18 Measurements Mean” value (CCL18; Donor 2, Conc. 11710 μM) was 1.998 fold change, the “Donor 2 CCL18 Measurements Mean” value (CCL18; Donor 2, Conc. 23420 μM) was 2.269 fold change and the “CCL18 Measurements: Mean (fold change relative to vehicle control)” value (CCL18; Conc. 234 μM) was 0.7896 fold change. For the same compound, the “CCL18 Measurements: Mean (fold change relative to vehicle control)” value (CCL18; Conc. 4684 μM) was 0.9781 fold change, the “CCL18 Measurements: Mean (fold change relative to vehicle control)” value (CCL18; Conc. 11710 μM) was 0.9976 fold change and the “CCL18 Measurements: Mean (fold change relative to vehicle control)” value (CCL18; Conc. 23420 μM) was 1.082 fold change. For the same compound, the “IL-4 induced CCL18 secretion (fold change relative to vehicle control)” value (CCL18; macrophages, Donor 2) was “significantly increased”.
